Assays:
[1] = target: Mitogen-activated protein kinase 4 (Homo sapiens) (UniProt P31152); test: Selectivity interaction (KinomeScan (DiscoverX)) EUB0001049a MAPK4; conditions: at 1 µM
[2] = target: 5-hydroxytryptamine receptor 2A (Homo sapiens, UniProt P28223); test: Selectivity interaction (Safety Panel 44tm (Eurofins)) EUB0000162b HTR2A; conditions: at 10 µM
[3] = target: Mitogen-activated protein kinase kinase kinase 1 (Homo sapiens, UniProt Q13233); test: Selectivity interaction (KinomeScan (DiscoverX)) EUB0000666a MAP3K1; conditions: at 10 µM
Mitogen-activated protein kinase kinase kinase 1, sequence (Q13233 whole entry): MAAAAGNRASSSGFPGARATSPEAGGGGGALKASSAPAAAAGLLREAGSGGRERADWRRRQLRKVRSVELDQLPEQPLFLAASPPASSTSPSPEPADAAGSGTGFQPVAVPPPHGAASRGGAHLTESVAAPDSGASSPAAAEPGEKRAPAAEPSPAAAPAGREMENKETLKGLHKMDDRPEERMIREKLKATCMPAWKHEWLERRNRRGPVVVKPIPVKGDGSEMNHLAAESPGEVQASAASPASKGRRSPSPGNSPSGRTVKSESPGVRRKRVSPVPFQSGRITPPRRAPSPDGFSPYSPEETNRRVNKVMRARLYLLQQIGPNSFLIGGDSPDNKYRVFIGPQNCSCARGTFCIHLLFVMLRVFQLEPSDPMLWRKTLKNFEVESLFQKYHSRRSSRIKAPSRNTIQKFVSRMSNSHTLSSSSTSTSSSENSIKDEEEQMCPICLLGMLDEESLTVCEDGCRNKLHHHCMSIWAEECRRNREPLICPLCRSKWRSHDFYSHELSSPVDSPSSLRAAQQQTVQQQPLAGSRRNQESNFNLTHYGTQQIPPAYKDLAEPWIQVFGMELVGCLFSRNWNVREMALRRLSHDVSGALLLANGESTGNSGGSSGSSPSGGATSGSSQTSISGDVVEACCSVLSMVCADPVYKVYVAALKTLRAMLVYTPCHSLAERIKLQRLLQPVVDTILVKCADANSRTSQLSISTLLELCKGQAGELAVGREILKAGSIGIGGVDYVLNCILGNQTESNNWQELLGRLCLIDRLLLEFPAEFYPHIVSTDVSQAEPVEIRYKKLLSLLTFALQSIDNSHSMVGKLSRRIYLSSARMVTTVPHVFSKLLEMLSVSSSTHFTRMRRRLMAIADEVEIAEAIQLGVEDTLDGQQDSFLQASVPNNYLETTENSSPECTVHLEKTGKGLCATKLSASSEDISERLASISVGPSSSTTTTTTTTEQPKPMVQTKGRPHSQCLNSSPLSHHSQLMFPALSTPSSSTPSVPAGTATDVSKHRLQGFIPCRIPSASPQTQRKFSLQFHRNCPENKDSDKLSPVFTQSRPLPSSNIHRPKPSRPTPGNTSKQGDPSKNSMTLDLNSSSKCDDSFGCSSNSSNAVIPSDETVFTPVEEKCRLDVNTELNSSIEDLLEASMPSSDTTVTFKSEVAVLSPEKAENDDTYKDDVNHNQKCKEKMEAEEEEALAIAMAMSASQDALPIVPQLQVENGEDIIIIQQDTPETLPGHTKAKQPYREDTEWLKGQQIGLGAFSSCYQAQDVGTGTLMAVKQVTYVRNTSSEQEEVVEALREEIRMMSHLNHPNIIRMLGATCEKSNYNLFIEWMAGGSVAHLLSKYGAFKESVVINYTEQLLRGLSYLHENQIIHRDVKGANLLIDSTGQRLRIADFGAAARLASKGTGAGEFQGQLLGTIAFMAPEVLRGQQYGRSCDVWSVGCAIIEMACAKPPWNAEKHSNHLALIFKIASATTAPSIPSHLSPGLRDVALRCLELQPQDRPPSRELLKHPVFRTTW

[4] = target: T1, Mitogen-activated protein kinase kinase kinase 19 (Homo sapiens) (UniProt Q56UN5); test: Selectivity interaction (KinomeScan (DiscoverX)) EUB0000666a MAP3K19; conditions: at 10 µM
T1 sequence (whole entry): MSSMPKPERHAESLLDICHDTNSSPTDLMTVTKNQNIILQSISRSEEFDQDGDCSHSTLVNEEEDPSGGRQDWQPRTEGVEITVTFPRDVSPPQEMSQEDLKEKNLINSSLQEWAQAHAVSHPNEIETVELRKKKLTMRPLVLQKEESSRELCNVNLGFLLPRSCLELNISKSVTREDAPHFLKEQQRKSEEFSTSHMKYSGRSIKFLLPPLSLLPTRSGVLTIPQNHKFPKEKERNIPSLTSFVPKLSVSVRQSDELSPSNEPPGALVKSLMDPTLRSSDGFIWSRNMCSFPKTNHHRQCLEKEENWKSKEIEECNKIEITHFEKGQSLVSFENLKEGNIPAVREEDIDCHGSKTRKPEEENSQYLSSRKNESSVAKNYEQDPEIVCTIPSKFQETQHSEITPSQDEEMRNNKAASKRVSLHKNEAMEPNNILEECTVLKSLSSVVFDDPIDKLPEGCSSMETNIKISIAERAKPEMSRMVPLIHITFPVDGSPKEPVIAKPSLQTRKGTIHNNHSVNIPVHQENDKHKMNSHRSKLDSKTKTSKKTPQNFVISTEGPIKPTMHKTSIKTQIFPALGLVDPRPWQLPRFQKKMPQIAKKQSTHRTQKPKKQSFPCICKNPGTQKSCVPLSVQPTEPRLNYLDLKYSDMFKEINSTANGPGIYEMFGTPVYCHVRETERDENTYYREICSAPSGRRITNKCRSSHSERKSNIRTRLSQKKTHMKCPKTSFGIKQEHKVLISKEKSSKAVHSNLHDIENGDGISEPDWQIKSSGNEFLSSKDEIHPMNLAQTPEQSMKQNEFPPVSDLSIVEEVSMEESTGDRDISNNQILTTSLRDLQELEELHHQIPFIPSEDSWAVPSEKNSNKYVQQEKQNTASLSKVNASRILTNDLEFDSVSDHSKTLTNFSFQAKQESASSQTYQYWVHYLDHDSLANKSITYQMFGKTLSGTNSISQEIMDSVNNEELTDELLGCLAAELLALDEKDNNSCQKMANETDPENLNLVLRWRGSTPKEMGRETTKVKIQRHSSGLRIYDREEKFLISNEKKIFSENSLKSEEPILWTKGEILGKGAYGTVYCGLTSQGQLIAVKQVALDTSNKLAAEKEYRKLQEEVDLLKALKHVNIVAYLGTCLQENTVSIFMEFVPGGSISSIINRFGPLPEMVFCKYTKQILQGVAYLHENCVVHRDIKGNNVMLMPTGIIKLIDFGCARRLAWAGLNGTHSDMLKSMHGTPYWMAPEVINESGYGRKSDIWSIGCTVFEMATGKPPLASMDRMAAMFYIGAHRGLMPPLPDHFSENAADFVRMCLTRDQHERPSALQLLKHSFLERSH

[5] = target: Mitogen-activated protein kinase 14 (Homo sapiens, UniProt Q16539); test: Selectivity interaction (KinomeScan (DiscoverX)) EUB0000229b MAPK14; conditions: at 10 µM
Mitogen-activated protein kinase 14, sequence (Q16539 whole entry): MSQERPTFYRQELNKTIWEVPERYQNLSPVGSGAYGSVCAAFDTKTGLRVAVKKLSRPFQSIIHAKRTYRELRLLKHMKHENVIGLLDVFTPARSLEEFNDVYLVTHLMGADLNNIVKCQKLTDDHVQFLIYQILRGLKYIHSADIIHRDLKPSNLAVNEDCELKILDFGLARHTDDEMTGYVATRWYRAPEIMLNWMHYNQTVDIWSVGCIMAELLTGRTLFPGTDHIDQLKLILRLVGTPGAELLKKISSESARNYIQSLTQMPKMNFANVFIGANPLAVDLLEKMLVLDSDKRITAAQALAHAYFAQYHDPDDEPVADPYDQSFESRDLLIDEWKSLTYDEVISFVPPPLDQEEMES

[6] = target: Calcium/calmodulin-dependent protein kinase type II subunit delta (Homo sapiens) (UniProt Q13557); test: Selectivity interaction (Kinase panel (DSF assay)) EUB0001558a CAMK2D
[7] = target: Serine/threonine-protein kinase RIO2 (Homo sapiens) (UniProt Q9BVS4); test: Selectivity interaction (KinomeScan (DiscoverX)) EUB0001550a RIOK2; conditions: at 1 µM
[8] = target: Dual specificity testis-specific protein kinase 1 (Homo sapiens) (UniProt Q15569); conditions: at 10 µM
[9] = target: Serine/threonine-protein kinase B-raf (Homo sapiens) (UniProt P15056); test: (§1) Selectivity interaction (Ambit KINOMEscan and KiNATiv profiling in Jurkat cells) EUB0000090b BRAF; assay type: cell-based; conditions: at 1 µM
Serine/threonine-protein kinase B-raf (Homo sapiens), sequence (P15056 whole entry): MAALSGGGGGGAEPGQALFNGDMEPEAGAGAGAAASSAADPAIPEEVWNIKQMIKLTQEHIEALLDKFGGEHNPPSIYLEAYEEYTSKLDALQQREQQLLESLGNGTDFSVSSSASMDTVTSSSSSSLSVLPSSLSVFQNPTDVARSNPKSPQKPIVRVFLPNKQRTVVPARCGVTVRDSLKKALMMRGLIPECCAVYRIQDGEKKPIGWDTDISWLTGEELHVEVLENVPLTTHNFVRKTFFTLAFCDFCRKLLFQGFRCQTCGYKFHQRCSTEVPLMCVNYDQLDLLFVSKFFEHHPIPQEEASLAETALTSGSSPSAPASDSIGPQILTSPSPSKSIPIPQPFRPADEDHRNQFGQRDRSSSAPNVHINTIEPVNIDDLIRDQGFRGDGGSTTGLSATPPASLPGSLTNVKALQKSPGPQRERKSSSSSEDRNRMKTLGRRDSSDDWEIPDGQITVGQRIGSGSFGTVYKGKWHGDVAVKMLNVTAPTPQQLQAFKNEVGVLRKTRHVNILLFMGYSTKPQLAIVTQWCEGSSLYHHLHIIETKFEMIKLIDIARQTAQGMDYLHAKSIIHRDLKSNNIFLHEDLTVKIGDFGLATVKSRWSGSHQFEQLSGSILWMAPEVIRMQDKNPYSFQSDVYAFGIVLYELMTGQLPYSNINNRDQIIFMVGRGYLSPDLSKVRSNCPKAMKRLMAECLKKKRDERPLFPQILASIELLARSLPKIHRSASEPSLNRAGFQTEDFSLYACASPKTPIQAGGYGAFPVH

[10] = test system: Serine/threonine-protein kinase B-raf (Homo sapiens), P15056 [V600E]; test: as §1; assay type: cell-based; conditions: at 1 µM
Serine/threonine-protein kinase B-raf (Homo sapiens), P15056 [V600E], sequence (P15056 whole entry V600E): as the sequence (P15056 whole entry) above, with V600E counted along it

[11] = target: Calcium/calmodulin-dependent protein kinase kinase 1 (Homo sapiens) (UniProt Q8N5S9); test: Selectivity interaction (KinomeScan (DiscoverX)) EUB0000045b CAMKK1
Calcium/calmodulin-dependent protein kinase kinase 1 (Homo sapiens), sequence (Q8N5S9 whole entry, looked up): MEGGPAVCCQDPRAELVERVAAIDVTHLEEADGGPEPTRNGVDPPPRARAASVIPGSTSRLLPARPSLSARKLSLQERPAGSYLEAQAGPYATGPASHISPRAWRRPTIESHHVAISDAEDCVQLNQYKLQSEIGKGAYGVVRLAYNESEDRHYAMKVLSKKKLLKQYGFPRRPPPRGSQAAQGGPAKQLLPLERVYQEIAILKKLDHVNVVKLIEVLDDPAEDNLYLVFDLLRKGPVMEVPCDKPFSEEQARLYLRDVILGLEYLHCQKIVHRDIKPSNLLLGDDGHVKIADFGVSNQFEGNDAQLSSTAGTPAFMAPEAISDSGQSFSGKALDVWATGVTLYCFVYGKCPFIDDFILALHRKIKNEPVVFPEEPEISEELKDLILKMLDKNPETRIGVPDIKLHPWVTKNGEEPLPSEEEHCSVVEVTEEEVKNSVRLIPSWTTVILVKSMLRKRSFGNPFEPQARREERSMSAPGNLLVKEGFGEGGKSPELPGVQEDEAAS

[12] = target: Cyclin-dependent kinase 15 (Homo sapiens) (UniProt Q96Q40); test: Selectivity interaction (KinomeScan (DiscoverX)) EUB0000045b CDK15
Cyclin-dependent kinase 15 (Homo sapiens), sequence (Q96Q40 whole entry): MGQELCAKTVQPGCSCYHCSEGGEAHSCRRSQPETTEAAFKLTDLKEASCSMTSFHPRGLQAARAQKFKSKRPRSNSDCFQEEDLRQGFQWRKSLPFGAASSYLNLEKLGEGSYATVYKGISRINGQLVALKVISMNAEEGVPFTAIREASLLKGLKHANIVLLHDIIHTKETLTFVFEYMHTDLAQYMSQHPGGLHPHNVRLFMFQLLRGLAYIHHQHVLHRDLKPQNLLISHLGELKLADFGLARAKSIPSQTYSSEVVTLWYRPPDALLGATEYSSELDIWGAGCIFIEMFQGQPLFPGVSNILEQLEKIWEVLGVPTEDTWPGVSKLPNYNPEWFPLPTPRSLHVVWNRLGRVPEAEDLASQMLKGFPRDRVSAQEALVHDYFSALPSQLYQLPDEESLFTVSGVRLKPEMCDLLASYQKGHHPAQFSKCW

[13] = target: Glycogen synthase kinase-3 alpha (Homo sapiens, UniProt P49840); test: Selectivity interaction (KinomeScan (DiscoverX)) EUB0000045b GSK3A
Glycogen synthase kinase-3 alpha, sequence (P49840 2-483 limits assumed): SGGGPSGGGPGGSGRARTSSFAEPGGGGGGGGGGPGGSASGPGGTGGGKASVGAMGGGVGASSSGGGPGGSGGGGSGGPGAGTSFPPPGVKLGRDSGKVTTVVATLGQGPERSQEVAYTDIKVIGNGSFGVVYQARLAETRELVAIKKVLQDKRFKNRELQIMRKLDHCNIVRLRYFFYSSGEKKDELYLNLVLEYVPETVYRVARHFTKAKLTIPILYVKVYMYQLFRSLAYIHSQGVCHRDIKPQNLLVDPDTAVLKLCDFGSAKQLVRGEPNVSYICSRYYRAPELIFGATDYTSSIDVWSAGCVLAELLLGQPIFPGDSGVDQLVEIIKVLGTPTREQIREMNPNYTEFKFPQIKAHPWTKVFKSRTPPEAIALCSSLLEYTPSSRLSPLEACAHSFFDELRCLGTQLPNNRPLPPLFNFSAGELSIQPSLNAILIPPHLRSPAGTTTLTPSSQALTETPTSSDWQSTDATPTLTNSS

[14] = target: Serine/threonine-protein kinase MRCK beta (Homo sapiens) (UniProt Q9Y5S2); conditions: at 10 µM
[15] = target: Cyclin-dependent kinase 13 (Homo sapiens, UniProt Q14004); conditions: at 10 µM
[16] = target: Protein-tyrosine kinase 2-beta (Homo sapiens) (UniProt Q14289); test: Selectivity interaction (ActivX KiNativ screen (ex vivo kinase selectivity in human PBMCs)) EUB0001619a PTK2B; assay type: cell-based; conditions: PBMC, at 1 µM
[17] = target: Cyclin-dependent kinase 7/ cyclin H (Homo sapiens) (UniProt P51946+P50613); test: Selectivity interaction (Upstate Kinase Profiler service (Millipore)) EUB0000056c CDK7; assay type: protein-complex assay; conditions: at 1 µM
[18] = target: Mitogen-activated protein kinase 11 (Homo sapiens) (UniProt Q15759); test: Selectivity interaction (Upstate Kinase Profiler service (Millipore)) EUB0000056c MAPK11; conditions: at 1 µM
Mitogen-activated protein kinase 11 (Homo sapiens), sequence (Q15759 whole entry): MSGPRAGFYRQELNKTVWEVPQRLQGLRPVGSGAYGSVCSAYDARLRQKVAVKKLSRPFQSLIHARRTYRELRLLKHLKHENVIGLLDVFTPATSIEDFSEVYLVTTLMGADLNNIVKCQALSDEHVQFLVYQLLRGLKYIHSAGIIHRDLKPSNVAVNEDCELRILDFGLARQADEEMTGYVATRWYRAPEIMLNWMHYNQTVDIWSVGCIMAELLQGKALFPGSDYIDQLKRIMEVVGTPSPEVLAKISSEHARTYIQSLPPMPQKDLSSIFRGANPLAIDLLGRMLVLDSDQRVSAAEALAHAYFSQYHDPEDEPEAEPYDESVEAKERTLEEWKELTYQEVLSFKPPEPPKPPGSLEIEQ

[19] = target: SRSF protein kinase 2 (Homo sapiens) (UniProt P78362); test: Selectivity interaction (KinomeScan (DiscoverX)) EUB0000695a SRPK2; conditions: at 100 nM

5-hydroxytryptamine receptor 2A, sequence (P28223 whole entry): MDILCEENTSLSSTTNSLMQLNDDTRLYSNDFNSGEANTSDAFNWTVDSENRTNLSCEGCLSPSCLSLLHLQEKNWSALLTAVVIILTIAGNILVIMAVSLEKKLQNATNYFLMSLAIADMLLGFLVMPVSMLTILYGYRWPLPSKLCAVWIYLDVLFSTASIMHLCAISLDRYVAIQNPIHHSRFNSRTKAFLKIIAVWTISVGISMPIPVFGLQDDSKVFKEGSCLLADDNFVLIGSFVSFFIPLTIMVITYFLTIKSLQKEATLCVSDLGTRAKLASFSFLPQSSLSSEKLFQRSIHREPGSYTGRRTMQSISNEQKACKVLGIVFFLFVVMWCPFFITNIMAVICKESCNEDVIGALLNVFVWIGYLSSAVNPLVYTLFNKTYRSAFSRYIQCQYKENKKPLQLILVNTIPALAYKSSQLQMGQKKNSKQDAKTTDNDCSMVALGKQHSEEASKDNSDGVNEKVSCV

**Q.** For COc1cc(Nc2nc(C)cc(-c3cnn4nc(OC)ccc34)n2)cc(C(F)(F)F)c1, which % of control [1] is on record?
**A.** The % of control was 100%.

**Q.** CN(C)C(=O)Cn1cc(-c2ccc(-c3cncc4ccccc34)cc2)cn1 was tested. Which % of control [2] did it give?
**A.** The % of control was 87%.

**Q.** For O=C(NOC[C@H](O)CO)c1ccc(F)c(F)c1Nc1ccc(I)cc1F, which % of control [3] is on record?
**A.** Its % of control is 54%.

**Q.** And the % of control [4]?
**A.** Its % of control is 100%.

**Q.** COc1cc(N(C)c2ccnc3ccc(C(F)(F)F)cc23)cc(OC)c1OC was tested. Which % binding [5] did it give?
**A.** The % binding was 81%.

**Q.** Which dTM [6] does the source give for CC(C)(O)[C@H](F)CN1Cc2cc(NC(=O)c3cnn4cccnc34)c(N3CCOCC3)cc2C1=O here?
**A.** The dTM was 0.3 K.

**Q.** For CN(C)CC#Cc1ccc2[nH]c3c(c2c1)-c1nc(N)ncc1CCC3, which % of control [7] is on record?
**A.** Its % of control is 32%.

**Q.** For COCC(=O)NC/C=C/c1ccc2ncnc(Nc3ccc(Oc4ccc(C)nc4)c(C)c3)c2c1 [CP-724714], which % of control [8] is on record?
**A.** Its % of control is 75%.

**Q.** CN(C)C/C=C/C(=O)Nc1ccc(C(=O)N2CCCC(Nc3ncc(Cl)c(-c4c[nH]c5ccccc45)n3)C2)cc1 (configuration not stated) was tested. Which % of control [9] did it give?
**A.** The % of control was 98%.

**Q.** What about the % of control [10] of the same compound?
**A.** The % of control was 100%.

**Q.** How did the % of control ([11]; at 1 µM) turn out when C=CC(=O)Nc1cc(-n2c(=O)ccc3cnc4ccc(-c5ccc(NS(C)(=O)=O)cc5)cc4c32)ccc1C was run?
**A.** The % of control was 100%.

**Q.** What about the % of control ([11]; at 10 µM) of the same compound?
**A.** Its % of control is 74%.

**Q.** And the % of control ([12]; at 1 µM)?
**A.** The % of control was 100%.

**Q.** What about the % of control ([12]; at 10 µM) of the same compound?
**A.** Its % of control is 72%.

**Q.** And the % of control ([13]; at 1 µM)?
**A.** Its % of control is 100%.

**Q.** What about the % of control ([13]; at 10 µM) of the same compound?
**A.** Its % of control is 100%.

**Q.** Cc1cc([C@@H](C)Nc2ccccc2C(=O)O)c2nc(N3CCOCC3)cc(=O)n2c1 [AZD-6482] was tested. Which % of control [14] did it give?
**A.** Its % of control is 100%.

**Q.** And the % of control [15]?
**A.** The % of control was 88%.

**Q.** How did the % of inhibition [16] turn out when N#Cc1cccc(-c2c[nH]c3ncnc(N4CCOCC4)c23)c1 was run?
**A.** Its % of inhibition is 3%.

**Q.** Cc1ccc(-c2ccc3c(ccc4sc5c(c43)NC[C@@H](C)NC5=O)n2)cn1 was tested. Which % of inhibition [17] did it give?
**A.** Its % of inhibition is 5%.

**Q.** And the % of inhibition [18]?
**A.** The % of inhibition was 5%.

**Q.** Which % of control [19] does the source give for Cc1cc(F)c(C(=O)Nc2cccc(-c3nncn3C(C)C)n2)cc1-n1cnc(C2CC2)c1 here?
**A.** Its % of control is 100%.

From ChEMBL document CHEMBL5465560, “Selectivity Literature for EUbOPEN Chemogenomic Library” (2024)
